Several values for one entry are separate records, joined by “and”; a condition that tells them apart may be missing. Identical values can stand only once. Entries after “also recorded” stand apart in the source; their conditions may differ. Like-named read-outs stand apart in the source and are kept apart here.
Columns and labels:
rat hearts = experiment: ischemia/reperfusion damage in ex vivo Langendorff rat hearts, infarct size by TTC staining; conditions: for ischemic damage by TTC staining of heart sections: ischemia/reperfusion
AldDH2 = experiment: aldehyde dehydrogenase enzymatic activity in homogenates of ex vivo Langendorff rat hearts (NADH at 340 nm, acetaldehyde substrate); type: biochemical; conditions: for inhibition of AldDH2: during ischemia reperfusion; for rate of NADH accumulation (absorbance at 340 nm), FIG. 4: ethanol before ischemia vs I/R alone or normoxia, cyanamide in ethanol treated ischemic or normoxic samples
Method: Ex vivo Langendorff preparation of rat hearts were used as a model to assess the damage incurred by no-flow ischemia and reperfusion injury. This is an experimental model that mimics the clinical situation of myocardial infarction in patients. Rat hearts were excised and cannulated on a Langendorff apparatus via the aorta. Retrograde perfusion was carried out using the standard oxygenated Kreb-Hensleit buffer maintained at 37° C. All hearts were stabilized by an initial 5- to 10-minute perfusion period followed by delivery of different cardioprotective agents or AldDH2 inhibitors for 10-30 minutes, depending on the reagent. […] Ischemia was then introduced by 25 minutes of no-flow followed by 60 minutes of reperfusion. The degree of ischemia/reperfusion damage was measured by two independent commonly accepted parameters. […] In another assay, creatine phosphate kinase activity was measured from reperfusate of each heart collected during reperfusion. […] Homogenates from each heart was also obtained from a separate section of the identical sample and analyzed for aldehyde dehydrogenase enzymatic activity. Enzymatic activity was determined by a standard spectrophotometric method described above using acetaldehyde as the substrate and NAD^+ as a cofactor. FIG. 2: An experimental protocol using an ex vivo Langendorff heart. Rat hearts were excised and cannulated on a Langendorff apparatus via aorta. Retrograde perfusion was carried out using the standard oxygenated Kreb-Hensleit buffer maintained at 37° C. […] Peptides used were a selective activator (εV1-7) or inhibitor (εV1-2) or epsilon protein kinase C (εPKC). Ischemia was then introduced by 25 minutes of no-flow followed by 60 minutes of reperfusion. […] FIG. 3: Formation of acetic acid from acetaldehyde by action of aldehyde dehydrogenase. Enzymatic activity of aldehyde dehydrogenase is determined by a standard photospectrometric method using acetaldehyde as a substrate. In this reaction, aldehyde dehydrogenase catalyzes the oxidation of acetaldehyde to acetic acid. Concomitantly, NAD^+ is reduced to NADH resulting in an increase in absorbance at 340 nm wavelength in a photospectrometer. The rate of NADH increase is proportional to the enzymatic activity of aldehyde dehydrogenase.

| Structure (SMILES) | increase in infarct damage (rat hearts) | increase in ischemia/reperfusion damage as measured by infarct size (rat hearts) | effect on induction of AldDH2 activity by ethanol or εPKC agonist peptide (AldDH2; co-treatment, ischemia/reperfusion) | inhibition of AldDH2 (AldDH2; cyanamide treatment in the absence of ethanol or peptide) | inhibition of AldDH2 (AldDH2; cyanamide treatment in the presence of ethanol) | inhibition of AldDH2 (AldDH2; cyanamide treatment in the presence of peptide) | rate of NADH accumulation (absorbance at 340 nm), FIG. 4 (AldDH2) | AldDH2 activity in normoxic heart samples (AldDH2; normoxic) | increase in ischemia/reperfusion damage as measured by infarct size (rat hearts; agent alone, compared to no treatment control) | increase in infarct damage (rat hearts; in samples treated with ethanol) | increase in infarct damage (rat hearts; in samples treated with εPKC agonist peptide) | ischemic damage by TTC staining of heart sections (rat hearts; compared to control heart) | cardiac damage under normoxic condition (rat hearts; normoxic, compared to control heart) | increase in AldHD2 activity (AldDH2; as compared to ischemia/reperfusion control, ethanol 50 mM for 10 minutes, peptide 1 μM) |
| --- | --- | --- | --- | --- | --- | --- | --- | --- | --- | --- | --- | --- | --- | --- |
| O=[N+]([O-])OCC(CO[N+](=O)[O-])O[N+](=O)[O-] [Nitroglycerin, nitroglycerin] | 36% and 31% | 29% |  |  |  |  |  |  |  |  |  |  |  |  |
| N#CN [cyanamide] |  |  | effect of induction is also greatly abolished | 63% | 64% | 74% | reduction of NADH accumulation | inhibition of AldDH2 activity | 49% | 62% | 56% | eliminates the protective effect of ethanol and leads to an even greater damage as compared to control | does not produce any significantly greater damage than the control heart; also recorded: did not lead to any greater cardiac damage |  |
| CCO [ethanol] |  |  |  |  |  |  | increase in the rate of absorbance |  |  |  |  | leads to cardioprotection |  | 25% |

From patent US7560241B2, “Methods and compositions for modulating mitochondrial aldehyde dehydrogenase-2” (The Board of Trustees of the Leland Stanford Junior …, priority 2003, dated 2009)
